The values that follow are results of earlier work, collected in US20050096371A1, “Topical pharmaceutical compositions” (priority 2003, published 2005).

For series [1], the system named is humans. To be noted: Marzulli and Maibach's method.
The subject of series [2] is rabbits.
Series [3] deals with rabbit skin.
In series [4] the test system is human subjects. To be noted: repeated insult patch test, 50 human subjects, total of 15 applications; manufacturer's brochure.

For `CCOCCOCCO` [Transcutol®, diethylene glycol monoethyl ether], the “cutaneous irritation / sensitization” value in series [1] was “nonirritating and non-sensitizing”. Further, in series [2], the cutaneous irritation result is recorded as “nonirritating”.
As to `CN1CCCC1=O` [Pharmasolve®, N-methyl-2-pyrrolidone], in series [3], the PII is 0.5 and the “irritation to rabbit skin” value was “practically nonirritating”. Further, the “primary dermal irritation / sensitization” value in series [4] is “neither a primary dermal irritant nor a sensitizer”.
